In one data set the test system is MDA-MB468 cells. Briefly: MTT assay, breast cancer cell line. It counts as cell-based, human. The following applies: 1x10^-8 to 1x10^-5 M, FIG. 8. The source says: (§1) Representative compounds of the invention were screened for anti-cancer activity by the procedures and methods described below. The following human cancer cell lines were used to detect anti-cancer activity. • The breast cancer cell line MDA-MB468 served to detect anti-breast cancer activity. • The prostate cancer cell line PC-3 was used to detect anti-prostate cancer activity • The non-small-cell lung cancer cell line A549 was used to detect anti-lung cancer activity • The pancreatic cancer cell line BX-PC-3 was used to detect anti-pancreatic cancer activity. • Cell lines were purchased from American Type Culture Collection (ATCC). Cell Culture conditions:
(§2) The cancer cell cultures were grown as recommended by the ATTC manuals. A549 cells and BX-PC-3 cells were grown in DME Dulbecco's modified Eagle's medium containing 4500 mg/L glucose; 4 mM L-glutamine; 10 U/ml Pen-G; 10 mcg/ml […] and 10% fetal calf serum (FCS). PC-3 and MDA-MB468 cells were grown in RPMI medium 1640 containing 2 mM L-glutamine; 10 U/ml Pen-G; 10 mcg/ml Streptomycin and 10% FCS. Cells were kept at 6% CO2 and 37° C. Cells were seeded on day zero in 96-well format tissue culture plates at suitable densities the day before starting treatment, in the media indicated above.
(§3) On day one, the compounds of the invention were added to the culture media of growing cells, containing 10% […]. The cell media contained the compounds of the invention at one of six concentrations: 1×10^−8, 5×10^−8, 1×10^−7, 5×10^−7, 1×10^−6, and 1×10^−5M. In control experiments, 0.1% DMSO was used as vehicle control, and never exceeded 0.1% final concentration. On day four the media was removed from the cells and replaced with fresh media containing the compounds of the invention and FCS at the appropriate concentrations.
(§4) On day five 10 μl of 5 mg/ml MTT dye was added to each well containing a cell culture. […] On day 6 the formazan crystals formed were solubilized and the resulting colored solution quantified using a scanning multiwell spectrophotometer at a wavelength of 595 nm. […]

A further data set relates to PC-3 cells. Briefly: MTT assay, prostate cancer cell line. It is filed as cell-based, human. The following applies: PC-3 prostate cancer cells; 1x10^-8 to 1x10^-5 M; FIG. 9.
Source text: as §1, §2, §3, §4

For a further data set, the system named is A549 cells. Briefly: MTT assay, non-small-cell lung cancer cell line. It is filed as cell-based, human. The following applies: 1x10^-8 to 1x10^-5 M, FIG. 7.
Source text: as §1, §2, §3
On day five 10 μl of 5 mg/ml MTT dye was added to each well containing a cell culture. The MTT assay is based on the dehydrogenase activity in active mitochondria for cleavage of the yellow tetrazolium salt MTT to produce purple formazan crystals. This conversion of MTT only occurs in living cells with intact/functional mitochondria. After addition of MTT, the cells were incubated for additional 4 hours at 6% CO2 and 37° C. Reaction was then stopped by adding 100 μl/well of a solubilization solution consisting of 10% Sodium Dodecyl Sulfate (SDS) and 10 mM HCl. On day 6 the formazan crystals formed were solubilized and the resulting colored solution quantified using a scanning multiwell spectrophotometer at a wavelength of 595 nm.
The procedure of Example 21 was employed to measure the anti-cancer activity of compounds 1 & 2 of the invention and compare them with equivalent activity tests for Comparative Compound 4, whose synthesis is given in Example 4. […]

The next data set deals with BX-PC-3 cells. Briefly: MTT assay, pancreatic cancer cell line. It is filed as cell-based, human. The following applies: BX-PC-3 pancreatic cancer cells; 1x10^-8 to 1x10^-5 M; FIG. 10.
Source text: as §1, §2, §3, §4

The test system of data set [1] is phosphorylated JNK proteins. Briefly: Western Blot assay for JNK protein phosphorylation in H292 lung cancer cells. It counts as cell-based, human. The following applies: 2.5 micromolar, 16 hours, FIG. 15. The method, then:
Phosphorylated JNK proteins can be specifically detected by employing an antibody specific to phosphorylated JNK, followed by Western Blotting analysis. […] In particular, the human lung cancer cell line H292, purchased from the American Type Culture Collection (ATCC) (Manassas, Va.), was tested for JNK-activation induced by compounds 1, 2, 11, and 12 described herein.
H292 cells were grown in RPMI medium 1640 containing 2 mM L-glutamine; 10 U/ml Pen-G; 10 mcg/ml Streptomycin and 10% FCS.
Cells were kept at 6% CO2 and 37° C. H292 cells were plated at 70% confluence (adherent growing cells covering 70% of culture plate surface area) in a 10 centimeter tissue culture dish in the medium indicated above.
Compounds 1, 2, 11, and 12 were applied to cultures of the H292 cells in the medium indicated above at a concentration of 2.5 micromolar. DMSO (dimethyl sulfoxide, Sigma, St. Louis, Mo.) was used as vehicle control, and never exceeded 0.1% final concentration. Treatment was for 16 hours.
At the end of incubation of the cultured cells with the test compounds, the medium was removed and the plated cells were washed twice with cold PBS (phosphate buffer saline). Excess PBS was aspirated away and the cells were lysed and scraped into sample buffer containing 50 mM HEPES pH 7.5 (buffer), 150 mM NaCl, 0.1% Tween 20 (a detergent, Biorad, Hercules, Calif.), 20 mM NaF, 10 mcg/mL aprotinin, 10 mcg/mL leupeptin. Samples were incubated on ice for 15 minutes and insoluble material was pelleted by microfugation. Protein concentrations for each sample were determined using BSA (Bovine serum albumin, Sigma, St Louis, Mo.) as a standard in a colorimetric protein quantification assay (BioRad, Hercules, Calif.).
100 mcg of each sample of cellular lysate were subjected to electrophoresis on 12% SDS-PAGE (polyacrylamide gel electrophoresis) gels (BioRad, Hercules, Calif.). Proteins were transferred to PVDF membrane. Membranes were probed with a monoclonal antibody recognizing phosphorylated JNK (Cell Signaling, Beverly, Mass.) followed by HRP(horseradish peroxidase)-conjugated goat-anti-mouse antibody (Santa Cruz Biotechnology, Santa Cruz, Calif.). Immunoreative bands were visualized by ECL (enhanced chemiluminescence, Amersham, Buckinghanshire, England) detection on film (Kodak, Rochester, N.Y.).

Molecules are shown by their SMILES. Entries after “also recorded” stand apart in the source; their conditions may differ.

With `Cc1nc2cc(-c3ccc(/C=C4\SC(=O)NC4=O)cn3)cc(C34CC5CC(CC(C5)C3)C4)c2o1` [Compound 1, 5-[6-(7-Adamantan-1-yl-2-methyl-benzoxazol-5-yl)-pyridin-3-ylmethylene]-thiazolidine-2,4-dione], the “anti-cancer activity (MTT)” value in the data set with MDA-MB468 cells was “consistent and potent anti-cancer activity at low concentrations”; in the data set on PC-3 cells it was “consistent and potent anti-cancer activity at low concentrations”; in the data set with A549 cells, “consistent and potent anti-cancer activity at low concentrations”; in the data set with BX-PC-3 cells, “consistent and potent anti-cancer activity at low concentrations”. The “phosphorylation of JNK proteins (phospho-JNK bands)” value (shortened to “phosphorylation of JNK proteins”) in data set [1] is on record as “results in the production of phosphorylated JNK proteins; also recorded: induced the phosphorylation of JNK proteins; also recorded: potent activators of the phosphorylation of JNK proteins”.

Consider `O=C1NC(=O)/C(=C/c2ccc(-c3cc(C45CC6CC(CC(C6)C4)C5)c4ocnc4c3)nc2)S1` [Compound 2, 5-[6-(7-Adamantan-1-yl-benzoxazol-5-yl)-pyridin-3-ylmethylene]-thiazolidine-2,4-dione], for which the “anti-cancer activity (MTT)” value in the data set on MDA-MB468 cells is “consistent and potent anti-cancer activity at low concentrations”; in the data set on PC-3 cells, “consistent and potent anti-cancer activity at low concentrations”; in the data set with A549 cells it was “consistent and potent anti-cancer activity at low concentrations”; in the data set with BX-PC-3 cells, “consistent and potent anti-cancer activity at low concentrations”. The “phosphorylation of JNK proteins” value in data set [1] was “results in the production of phosphorylated JNK proteins; also recorded: induced the phosphorylation of JNK proteins; also recorded: potent activators of the phosphorylation of JNK proteins”.

Take `Cc1nc2cc(-c3ccc(/C=C4\SC(=O)NC4=O)cn3)cc(C3CCCCC3)c2o1` [Compound 11, 5-[6-(7-Cyclohexyl-2-methyl-benzoxazol-5-yl)-pyridin-3-ylmethylene]-thiazolidine-2,4-dione]: the melting point lay in the range of 314 to 316 °C. Moreover, the “anti-cancer activity (MTT)” value in the data set on A549 cells is given as “only relatively weak activity”. For the same compound, the “phosphorylation of JNK proteins” value in data set [1] is “only weakly induced the phosphorylation of JNK proteins”.

As to `O=C1NC(=O)/C(=C/c2ccc(-c3cc(C4CCCCC4)c4ocnc4c3)nc2)S1` [Compound 12, 5-[6-(7-Cyclohexyl-benzoxazol-5-yl)-pyridin-3-ylmethylene]-thiazolidine-2,4-dione], the “phosphorylation of JNK proteins” value in data set [1] is reported as “results in the production of phosphorylated JNK proteins; also recorded: activates the phosphorylation of JNK proteins, though perhaps less potently than compound 1 or 2”.

For the compound `Nc1nc2cc(-c3ccc(/C=C4\SC(=O)NC4=O)cn3)cc(C34CC5CC(CC(C5)C3)C4)c2o1` [Compound 14, 5-[6-(7-Adamantan-1-yl-2-amino-benzoxazol-5-yl)-pyridin-3-ylmethylene]-thiazolidine-2,4-dione], the “anti-cancer activity (MTT)” value was “consistent and potent anti-cancer activity at low concentrations” in the data set with MDA-MB468 cells; “consistent and potent anti-cancer activity at low concentrations” in the data set with PC-3 cells; “consistent and potent anti-cancer activity at low concentrations” in the data set with A549 cells; “consistent and potent anti-cancer activity at low concentrations” in the data set with BX-PC-3 cells.

(Values after patent US20050014767A1, “Benzoxazole, benzothiazole, and benzimidazole derivatives for the treatment of cancer and other diseases” (priority 2003, published 2005).)
